The target of this test is T1, Human BCL-XL protein (N-terminal HiBiT tagged BCL-XL expressed in HT1080 cells) (Homo sapiens, UniProt Q07817).
T1 construct: expressed in transfected cells; host or cells: HT-1080 (ATCC CCL-121), stably transduced with lentivirus pLV-UBC-N-HiBiT-BCL-XL-PGK-puro and selected with puromycin
Kind of test: HiBiT Based Degradation Assay. As to conditions: 24 hours incubation; for DC50: BCL-XL degradation, HT1080 cells expressing N-HiBiT-BCL-XL, normalized with DMSO control, geometric mean for multiple data points, read-out: EC50 (24 h); for Ymin (24 h): bottom of BCL-XL degradation curve (remaining HiBiT-BCL-XL signal vs DMSO control), HT1080 cells. Type of test: cell-based. A digest of the protocol: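 BCL-XL degradation was read as Nano-Glo HiBiT lytic luminescence relative to DMSO after a 24 h compound treatment of HT1080 cells carrying stably integrated N-HiBiT-BCL-XL. EC50 values come from four-parameter logistic curves, with the hook-curve minimum fixed as bottom, and are geometric means where tested repeatedly.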
On the technique in general: HiBiT is a short tag that completes a luciferase, so light tracks the accessible tagged protein.

T1 sequence (Q07817 whole entry): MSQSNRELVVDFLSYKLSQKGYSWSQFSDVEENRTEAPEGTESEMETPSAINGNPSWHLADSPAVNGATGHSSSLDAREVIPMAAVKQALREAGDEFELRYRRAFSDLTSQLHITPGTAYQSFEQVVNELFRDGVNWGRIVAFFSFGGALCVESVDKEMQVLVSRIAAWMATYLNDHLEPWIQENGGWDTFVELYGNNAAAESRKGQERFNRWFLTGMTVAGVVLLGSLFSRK

With `Cn1nc(C2CCC(=O)NC2=O)c2ccc(NC(=O)CN3CCN(CCCO[C@H]4CC[C@H](c5ccc(N6CCc7cccc(C(=O)Nc8nc9ccccc9s8)c7C6)nc5C(=O)O)CC4)CC3)cc21` (stereo partly drawn) [Compound 2001a], the DC50 was under 10 nM and the “Ymin (24 h)” value is “B (30% ≤ Ymin < 50%)”.
As for `COc1c(NC(=O)CN2CCC3(CC2)CC(Oc2cccc(-c4ccc(N5CCc6cccc(C(=O)Nc7nc8ccccc8s7)c6C5)nc4C(=O)O)c2C(F)(F)F)C3)ccc2c(C3CCC(=O)NC3=O)nn(C)c12` (stereo not drawn) [Compound 166, 6-(8-(benzo[d]thiazol-2-ylcarbamoyl)-3,4-dihydroisoquinolin-2(1H)-yl)-3-(3-((7-(2-((3-(2,6-dioxopiperidin-3-yl)-7-methoxy-1-methyl-1H-indazol-6-yl)amino)-2-oxoethyl)-7-azaspiro[3.5]nonan-2-yl)oxy)-2-(trifluoromethyl)phenyl)picolinic acid], the DC50 lay within 10 to 100 nM and the “Ymin (24 h)” value is listed as “B (30% ≤ Ymin < 50%)”.
For `Cc1c(OC2CC3(CCN(CC(=O)Nc4ccc5c(C6CCC(=O)NC6=O)nn(C)c5c4F)CC3)C2)cccc1-c1ccc(N2CCc3cccc(C(=O)Nc4nc5ccccc5s4)c3C2)nc1C(=O)O` (stereo not drawn) [Compound 190, 6-(8-(benzo[d]thiazol-2-ylcarbamoyl)-3,4-dihydroisoquinolin-2(1H)-yl)-3-(3-((7-(2-((3-(2,6-dioxopiperidin-3-yl)-7-fluoro-1-methyl-1H-indazol-6-yl)amino)-2-oxoethyl)-7-azaspiro[3.5]nonan-2-yl)oxy)-2-methylphenyl)picolinic acid], in that order: under 10 nM and “B (30% ≤ Ymin < 50%)”.
On the same counts, the results for `Cc1c(OCC2CC3(CCN(CC(=O)Nc4cc5c(cc4F)c(C4CCC(=O)NC4=O)nn5C)CC3)C2)cccc1-c1ccc(N2CCc3cccc(C(=O)Nc4nc5ccccc5s4)c3C2)nc1C(=O)O` (stereo not drawn) [Compound 121] are 10 to 100 nM and “B (30% ≤ Ymin < 50%)”.
On the same counts, the results for `Cn1nc(C2CCC(=O)NC2=O)c2ccc(NC(=O)CN3CCC(CCCOc4ccc(-c5ccc(N6CCc7cccc(C(=O)Nc8nc9ccccc9s8)c7C6)nc5C(=O)O)c(C(F)(F)F)c4)CC3)cc21` (stereo not drawn) [Compound 129, 6-(8-(benzo[d]thiazol-2-ylcarbamoyl)-3,4-dihydroisoquinolin-2(1H)-yl)-3-(4-(3-(1-(2-((3-(2,6-dioxopiperidin-3-yl)-1-methyl-1H-indazol-6-yl)amino)-2-oxoethyl)piperidin-4-yl)propoxy)-2-(trifluoromethyl)phenyl)picolinic acid] are under 10 nM and “B (30% ≤ Ymin < 50%)”.
For `Cc1c(OCCC[C@H]2[C@@H]3C[C@H]2CN(CC(=O)Nc2ccc4c(C5CCC(=O)NC5=O)nn(C)c4c2)C3)cccc1-c1ccc(N2CCc3cccc(C(=O)Nc4nc5ccccc5s4)c3C2)nc1C(=O)O` (stereo partly drawn) [Compound 176a], the DC50 lay in the range of 10 to 100 nM and the “Ymin (24 h)” value was “C (50% ≤ Ymin < 70%)”.
Regarding `Cc1cc(OCCCC2CCN(CCOc3ccc4c(C5CCC(=O)NC5=O)nn(C)c4c3)CC2)ccc1-c1ccc(N2CCc3cccc(C(=O)Nc4nc5ccccc5s4)c3C2)nc1C(=O)O` (stereo not drawn) [Compound 178, 6-[8-(1,3-benzothiazol-2-ylcarbamoyl)-3,4-dihydro-1H-isoquinolin-2-yl]-3-[4-[3-[1-[2-[3-(2,6-dioxo-3-piperidyl)-1-methyl-indazol-6-yl]oxyethyl]-4-piperidyl]propoxy]-2-methyl-phenyl]pyridine-2-carboxylic acid], the DC50 is under 10 nM and the “Ymin (24 h)” value is recorded as “A (Ymin < 30%)”.
`Cc1c(OCCN2CCCC23CCN(CC(=O)Nc2ccc4c(C5CCC(=O)NC5=O)nn(C)c4c2)CC3)cccc1-c1ccc(N2CCc3cccc(C(=O)Nc4nc5ccccc5s4)c3C2)nc1C(=O)O` (stereo not drawn) [Compound 177]: the DC50 is under 10 nM and the “Ymin (24 h)” value was “B (30% ≤ Ymin < 50%)”.
On the same counts, the results for `Cc1c(OCCCC2CCN(CCOc3ccc4c(C5CCC(=O)NC5=O)nn(C)c4c3)CC2)cccc1-c1ccc(N2CCc3cccc(C(=O)Nc4nc5ccccc5s4)c3C2)nc1C(=O)O` (stereo not drawn) [Compound 156] are under 10 nM and “B (30% ≤ Ymin < 50%)”.
Regarding `Cc1c(OCCCC2(O)CCN(CC(=O)Nc3ccc4c(C5CCC(=O)NC5=O)nn(C)c4c3)CC2)cccc1-c1ccc(N2CCc3cccc(C(=O)Nc4nc5ccccc5s4)c3C2)nc1C(=O)O` (stereo not drawn) [Compound 108, 6-(8-(benzo[d]thiazol-2-ylcarbamoyl)-3,4-dihydroisoquinolin-2(1H)-yl)-3-(3-(3-(1-(2-((3-(2,6-dioxopiperidin-3-yl)-1-methyl-1H-indazol-6-yl)amino)-2-oxoethyl)-4-hydroxypiperidin-4-yl)propoxy)-2-methylphenyl)picolinic acid], the DC50 was 10 to 100 nM and the “Ymin (24 h)” value is “B (30% ≤ Ymin < 50%)”.
For `COc1c(NC(=O)CN2CC[C@H](CCCOc3cccc(-c4ccc(N5CCc6cccc(C(=O)Nc7nc8ccccc8s7)c6C5)nc4C(=O)O)c3C)C[C@@H]2C)ccc2c(C3CCC(=O)NC3=O)nn(C)c12` (stereo partly drawn) [Compound 208b], the DC50 was in the range of 10 to 100 nM and the “Ymin (24 h)” value was “B (30% ≤ Ymin < 50%)”.
For `Cc1c(OCCCC2CCN(CC(=O)Nc3ccc4c(C5CCC(=O)NC5=O)nn(C)c4n3)CC2)cccc1-c1ccc(N2CCc3cccc(C(=O)Nc4nc5ccccc5s4)c3C2)nc1C(=O)O` (stereo not drawn) [Compound 101], in that order: 10 to 100 nM and “C (50% ≤ Ymin < 70%)”.
For `Cc1c(OCC2CC3(CCN(CC(=O)Nc4cc5c(cc4C(F)(F)F)c(C4CCC(=O)NC4=O)nn5C)CC3)C2)cccc1-c1ccc(N2CCc3cccc(C(=O)Nc4nc5ccccc5s4)c3C2)nc1C(=O)O` (stereo not drawn) [Compound 139], in that order: 1000 to 10000 nM and “C (50% ≤ Ymin < 70%)”.
For `Cn1nc(C2CCC(=O)NC2=O)c2ccc(NC(=O)CN3CCC(CCCOc4cccc(-c5ccc(N6CCc7cccc(C(=O)Nc8nc9ccccc9s8)c7C6)nc5C(=O)O)c4F)CC3)c(F)c21` (stereo not drawn) [Compound 211], the DC50 lay within 10 to 100 nM and the “Ymin (24 h)” value is “C (50% ≤ Ymin < 70%)”.
On to `Cc1c(OC[C@H]2C[C@H]2C2CCN(CC(=O)Nc3ccc4c(C5CCC(=O)NC5=O)nn(C)c4c3)CC2)cccc1-c1ccc(N2CCc3cccc(C(=O)Nc4nc5ccccc5s4)c3C2)nc1C(=O)O` (single isomer, unassigned) [Compound 1001c], for which the DC50 lay within 10 to 100 nM and the “Ymin (24 h)” value is reported as “B (30% ≤ Ymin < 50%)”.
For `Cc1c(OCCCC2CCN(CCNc3ccc4c(C5CCC(=O)NC5=O)nn(C)c4c3)CC2)cccc1-c1ccc(N2CCc3cccc(C(=O)Nc4nc5ccccc5s4)c3C2)nc1C(=O)O` (stereo not drawn) [Compound 150, 6-[8-(1,3-benzothiazol-2-ylcarbamoyl)-3,4-dihydro-1H-isoquinolin-2-yl]-3-[3-[3-[1-[2-[[3-(2,6-dioxo-3-piperidyl)-1-methyl-indazol-6-yl]amino]ethyl]-4-piperidyl]propoxy]-2-methyl-phenyl]pyridine-2-carboxylic acid], in that order: under 10 nM and “B (30% ≤ Ymin < 50%)”.
Consider `Cc1cc(O[C@H](C)CCC2CCN(CC(=O)Nc3ccc4c(C5CCC(=O)NC5=O)nn(C)c4c3)CC2)ccc1-c1ccc(N2CCc3ccnc(C(=O)Nc4nc5ccccc5s4)c3C2)nc1C(=O)O` (single isomer, unassigned) [Compound 133a], for which the DC50 was in the range of 10 to 100 nM and the “Ymin (24 h)” value was “B (30% ≤ Ymin < 50%)”.
For `Cc1cc(OCC2CC3(CCN(CC(=O)Nc4ccc5c(C6CCC(=O)NC6=O)nn(C)c5c4F)CC3)C2)ccc1-c1ccc(N2CCc3cccc(C(=O)Nc4nc5ccccc5s4)c3C2)nc1C(=O)O` (stereo not drawn) [Compound 122, 6-(8-(benzo[d]thiazol-2-ylcarbamoyl)-3,4-dihydroisoquinolin-2(1H)-yl)-3-(4-((7-(2-((3-(2,6-dioxopiperidin-3-yl)-7-fluoro-1-methyl-1H-indazol-6-yl)amino)-2-oxoethyl)-7-azaspiro[3.5]nonan-2-yl)methoxy)-2-methylphenyl)picolinic acid], the DC50 fell in the range of 10 to 100 nM and the “Ymin (24 h)” value is “B (30% ≤ Ymin < 50%)”.
On the same counts, the results for `Cn1nc(C2CCC(=O)NC2=O)c2ccc(NC(=O)CN3CCC4(CC3)CC(Oc3cccc(-c5ccc(N6CCc7ccnc(C(=O)Nc8nc9ccccc9s8)c7C6)nc5C(=O)O)c3C(F)(F)F)C4)cc21` (stereo not drawn) [Compound 154, 6-[8-(1,3-benzothiazol-2-ylcarbamoyl)-3,4-dihydro-1H-2,7-naphthyridin-2-yl]-3-[3-[[7-[2-[[3-(2,6-dioxo-3-piperidyl)-1-methyl-indazol-6-yl]amino]-2-oxo-ethyl]-7-azaspiro[3.5]nonan-2-yl]oxy]-2-(trifluoromethyl)phenyl]pyridine-2-carboxylic acid] are under 10 nM and “B (30% ≤ Ymin < 50%)”.
For `COc1c(NC(=O)CN2CCC3(CC2)CC(Oc2ccc(-c4ccc(N5CCc6ccnc(C(=O)Nc7nc8ccccc8s7)c6C5)nc4C(=O)O)c(C)c2)C3)ccc2c(C3CCC(=O)NC3=O)nn(C)c12` (stereo not drawn) [Compound 187, 6-[8-(1,3-benzothiazol-2-ylcarbamoyl)-3,4-dihydro-1H-2,7-naphthyridin-2-yl]-3-[4-[[7-[2-[[3-(2,6-dioxo-3-piperidyl)-7-methoxy-1-methyl-indazol-6-yl]amino]-2-oxo-ethyl]-7-azaspiro[3.5]nonan-2-yl]oxy]-2-methyl-phenyl]pyridine-2-carboxylic acid], in that order: under 10 nM and “A (Ymin < 30%)”.
Take `Cc1cc(OCCC[C@H]2CCN(CC(=O)Nc3ccc4c(C5CCC(=O)NC5=O)nn(C)c4c3)[C@H](C)C2)ccc1-c1ccc(N2CCc3ccnc(C(=O)Nc4nc5ccccc5s4)c3C2)nc1C(=O)O` (stereo partly drawn) [Compound 219c]: the DC50 was under 10 nM and the “Ymin (24 h)” value was “A (Ymin < 30%)”.

The record behind these values is patent US20260216170A1, “TETRAHYDROISOQUINOLINE HETEROBIFUNCTIONAL BCL-XL DEGRADERS” (Treeline Biosciences, Inc., priority 2023, published 2026).
